Results on 34 compounds are retold here after patent US20200291018A1, “TAM KINASE INHIBITORS” (SYROS PHARMACEUTICALS, INC., priority 2017, published 2020).

pIC50: −log10 of the molar value.

The target of experiment [1] is T1, AXL (Homo sapiens, UniProt P30530).
T1 sequence (P30530 26-894): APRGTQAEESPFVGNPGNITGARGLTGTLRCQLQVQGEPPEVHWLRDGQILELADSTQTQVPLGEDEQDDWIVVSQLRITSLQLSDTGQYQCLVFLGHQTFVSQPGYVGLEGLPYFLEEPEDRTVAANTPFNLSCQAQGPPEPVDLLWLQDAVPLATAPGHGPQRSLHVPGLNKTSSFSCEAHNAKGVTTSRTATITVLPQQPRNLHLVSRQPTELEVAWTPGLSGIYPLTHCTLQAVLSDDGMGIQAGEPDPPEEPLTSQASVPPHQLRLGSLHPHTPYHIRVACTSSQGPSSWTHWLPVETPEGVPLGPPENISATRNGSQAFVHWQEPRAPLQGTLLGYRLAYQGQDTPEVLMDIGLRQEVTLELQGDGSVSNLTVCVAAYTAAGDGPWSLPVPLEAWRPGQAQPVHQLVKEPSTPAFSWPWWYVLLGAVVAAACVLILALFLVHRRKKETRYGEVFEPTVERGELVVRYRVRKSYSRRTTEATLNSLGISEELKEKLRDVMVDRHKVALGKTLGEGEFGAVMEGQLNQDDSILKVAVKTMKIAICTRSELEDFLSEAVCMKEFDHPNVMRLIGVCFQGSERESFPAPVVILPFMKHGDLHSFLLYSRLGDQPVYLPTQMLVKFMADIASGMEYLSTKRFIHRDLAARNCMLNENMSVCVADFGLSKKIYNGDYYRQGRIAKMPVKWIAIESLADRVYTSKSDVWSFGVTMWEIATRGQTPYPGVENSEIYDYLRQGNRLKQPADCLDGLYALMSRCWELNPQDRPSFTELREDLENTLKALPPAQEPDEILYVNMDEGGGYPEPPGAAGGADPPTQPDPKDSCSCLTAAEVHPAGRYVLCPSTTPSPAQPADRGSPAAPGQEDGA
In words: TR-FRET kinase activity assay, AXL. The conditions noted are these: ATP at Km, 60 minutes. The class given is biochemical. Put shortly:
(§1)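 Steps: compound, enzyme and labeled peptide combined at RT (50 mM HEPES pH 7.5, 10 mM MgCl2, 1 mM DTT); ATP added at Km; 60 min reaction; EDTA quench; Eu-antibody development 30 min in darkness; TR-FRET measured and IC50 fitted.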
(In TR-FRET formats the signal depends on donor and acceptor labels being close together.)

Experiment [2] concerns the target T2, FLT3 (Homo sapiens, UniProt P36888).
T2 sequence (P36888 27-993): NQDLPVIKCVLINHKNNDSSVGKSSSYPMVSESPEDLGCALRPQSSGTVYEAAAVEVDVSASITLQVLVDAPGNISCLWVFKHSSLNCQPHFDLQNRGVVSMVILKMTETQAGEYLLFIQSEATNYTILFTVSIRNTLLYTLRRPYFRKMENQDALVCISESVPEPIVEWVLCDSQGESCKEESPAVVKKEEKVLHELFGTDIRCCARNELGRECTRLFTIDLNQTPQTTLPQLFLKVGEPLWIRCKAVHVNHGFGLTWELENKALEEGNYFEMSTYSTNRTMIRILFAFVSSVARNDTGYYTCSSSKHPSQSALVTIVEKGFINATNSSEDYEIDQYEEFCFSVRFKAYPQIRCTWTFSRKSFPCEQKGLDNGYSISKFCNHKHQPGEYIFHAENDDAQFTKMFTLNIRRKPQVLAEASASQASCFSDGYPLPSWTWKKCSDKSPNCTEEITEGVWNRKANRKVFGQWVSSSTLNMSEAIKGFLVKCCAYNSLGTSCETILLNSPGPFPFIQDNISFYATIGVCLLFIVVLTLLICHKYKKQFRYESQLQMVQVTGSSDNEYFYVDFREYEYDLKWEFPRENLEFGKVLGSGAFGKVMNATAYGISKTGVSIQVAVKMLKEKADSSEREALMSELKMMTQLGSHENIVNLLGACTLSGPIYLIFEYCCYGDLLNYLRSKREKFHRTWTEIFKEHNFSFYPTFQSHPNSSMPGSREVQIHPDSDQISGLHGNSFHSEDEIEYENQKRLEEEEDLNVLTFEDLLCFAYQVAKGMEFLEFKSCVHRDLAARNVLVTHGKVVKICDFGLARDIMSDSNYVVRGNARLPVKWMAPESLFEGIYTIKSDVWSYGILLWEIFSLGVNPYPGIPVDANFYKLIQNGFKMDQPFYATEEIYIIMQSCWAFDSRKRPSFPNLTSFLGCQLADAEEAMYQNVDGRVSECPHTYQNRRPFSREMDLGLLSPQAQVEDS
In words: TR-FRET kinase activity assay, FLT3. The note with it: ATP at Km, 60 minutes. The class given is biochemical. A digest of the protocol: as §1

On to `COC[C@H](C)Nc1ncc2c(O[C@H]3CCN(C)C(C)(C)C3)ncc([C@H]3CC[C@H](O)CC3)c2n1` [Compound 384], for which the pIC50 in experiment [1] was 6.00 to 7.00; in experiment [2], 5.00 to 6.00.
The like results for `COC[C@H](C)Nc1ncc2c(O[C@@H]3CCN(C)C(C)(C)C3)ncc([C@H]3CC[C@H](O)CC3)c2n1` [Compound 385] were, in that order, 6.00 to 7.00 and 5.00 to 6.00.
Consider `C[C@@H](CC(F)(F)F)Nc1ncc2c(OC3CC(C)(C)N(C)C(C)(C)C3)ncc([C@H]3CC[C@H](O)CC3)c2n1` [Compound 386], for which the values for the pIC50 in experiment [1] and in experiment [2] were no less than 7.00 and 6.00 to 7.00, respectively.
The corresponding values for `COC[C@H](C)Nc1ncc2c(OC3C[C@H](C)N(C)[C@@H](C)C3)ncc([C@H]3CC[C@H](O)CC3)c2n1` (some centres unmarked) [Compound 387] are 6.00 to 7.00 and 5.00 to 6.00.
The corresponding values for `COC[C@H](C)Nc1ncc2c(OC3C[C@@H](C)N(C)[C@H](C)C3)ncc([C@H]3CC[C@H](O)CC3)c2n1` (some centres unmarked) [Compound 388] are 6.00 to 7.00 and 5.00 to 6.00.
For the compound `C[C@@H](CC(F)(F)F)Nc1ncc2c(OC3CCN(S(C)(=O)=O)CC3)ncc([C@H]3CC[C@H](O)CC3)c2n1` [Compound 389], the results for the negative logarithm of the IC50 (pIC50) in experiment [1] and in experiment [2] were 6.00 to 7.00 and 5.00 to 6.00, respectively.
Regarding `COCCN1C(C)(C)CC(Oc2ncc([C@H]3CC[C@H](O)CC3)c3nc(N[C@@H]4CCOC4)ncc23)CC1(C)C` [Compound 390], the pIC50 was 6.00 to 7.00 in experiment [1] and 5.00 to 6.00 in experiment [2].
Regarding `CCN1C(C)(C)CC(Oc2ncc([C@H]3CC[C@H](O)CC3)c3nc(N[C@@H](C)CC(F)(F)F)ncc23)CC1(C)C` [Compound 391], the negative logarithm of the IC50 (pIC50) is no less than 7.00 in experiment [1] and 6.00 to 7.00 in experiment [2].
`O[C@H]1CC[C@H](c2cnc(OC3CCOCC3)c3cnc(Nc4ccc(-c5nn[nH]n5)cc4)nc32)CC1` [Compound 392]: the values for the negative logarithm of the IC50 (pIC50) in experiment [1] and in experiment [2] were no less than 7.00 and 6.00 to 7.00, respectively.
As for `COC[C@H](C)Nc1ncc2c(O[C@H]3C[C@@H](C(=O)N4CCN(C)CC4)C3)ncc([C@H]3CC[C@H](O)CC3)c2n1` [Compound 393], the pIC50 in experiment [1] was 6.00 to 7.00; in experiment [2], 5.00 to 6.00.
Take `C[C@@H](Nc1ncc2c(OC3CCOCC3)ncc([C@H]3CC[C@H](O)CC3)c2n1)C(F)F` [Compound 394]: the negative-log IC50 (pIC50) in experiment [1] was 6.00 to 7.00; in experiment [2], 5.00 to 6.00.
As for `COC[C@H](C)Nc1ncc2c(OC3CCOCC3)ncc(-c3ccc(F)cc3)c2n1` [Compound 395], the negative-log IC50 (pIC50) in experiment [1] and in experiment [2] was 5.00 to 6.00 each time.
`COC[C@H](C)Nc1ncc2c(OC3CCOCC3)ncc(-c3ccc(C#N)cc3)c2n1` [Compound 396]: the pIC50 in experiment [1] and in experiment [2] was 5.00 to 6.00 in each case.
Turning to `O=C(O)c1ccc(Nc2ncc3c(OC4CCOCC4)ncc([C@H]4CC[C@H](O)CC4)c3n2)cc1` [Compound 397], the pIC50 in experiment [1] and in experiment [2] was no less than 7.00 throughout.
Regarding `CNC(=O)c1ccc(Nc2ncc3c(OC4CCOCC4)ncc([C@H]4CC[C@H](O)CC4)c3n2)cc1` [Compound 398], the pIC50 in experiment [1] and in experiment [2] was 6.00 to 7.00 each time.
Take `NC(=O)c1ccc(Nc2ncc3c(OC4CCOCC4)ncc([C@H]4CC[C@H](O)CC4)c3n2)cc1` [Compound 399]: the pIC50 in experiment [1] and in experiment [2] was no less than 7.00 throughout.
For `COC[C@H](C)Nc1ncc2c(OC3CCOCC3)ncc(-c3ccc(S(C)(=O)=O)cc3)c2n1` [Compound 400], the negative logarithm of the IC50 (pIC50) in experiment [1] and in experiment [2] was 5.00 to 6.00 each time.
Turning to `C[C@H](CF)Nc1ncc2c(OC3CCOCC3)ncc([C@H]3CC[C@H](O)CC3)c2n1` [Compound 401], the results for the negative logarithm of the IC50 (pIC50) in experiment [1] and in experiment [2] were 6.00 to 7.00 and 5.00 to 6.00, respectively.
Take `C[C@@H](CC(F)(F)F)Nc1ncc2c(O[C@H]3C[C@@H](CN4CCOCC4)C3)ncc([C@H]3CC[C@H](O)CC3)c2n1` [Compound 402]: the negative-log IC50 (pIC50) in experiment [1] was no less than 7.00; in experiment [2], 6.00 to 7.00.
With `COC[C@H](C)Nc1ncc2c(C(F)(F)F)ncc([C@H]3CC[C@H](O)CC3)c2n1` [Compound 403], the negative logarithm of the IC50 (pIC50) in experiment [1] and in experiment [2] was 5.00 to 6.00 in each case.
For the compound `CC1(Nc2ncc3c(OC4CCOCC4)ncc(-c4cccc(NS(C)(=O)=O)c4)c3n2)CC1` [Compound 404], the pIC50 is 6.00 to 7.00 in experiment [1] and 5.00 to 6.00 in experiment [2].
As for `CC1(Nc2ncc3c(OC4CCOCC4)ncc(-c4cccc(S(=O)(=O)N5CCC5)c4)c3n2)CC1` [Compound 405], the pIC50 in experiment [1] was 6.00 to 7.00; in experiment [2] it was 5.00 to 6.00.
As for `C[C@H](CC(F)(F)F)Nc1ncc2c(O[C@H]3C[C@@H](O)C3)ncc([C@H]3CC[C@H](O)CC3)c2n1` [Compound 406], the pIC50 in experiment [1] and in experiment [2] was 5.00 to 6.00 in each case.
With `C[C@@H](COC(F)F)Nc1ncc2c(O[C@H]3C[C@@H](O)C3)ncc([C@H]3CC[C@H](O)CC3)c2n1` [Compound 407], the values for the pIC50 in experiment [1] and in experiment [2] were 6.00 to 7.00 and 5.00 to 6.00, respectively.
Turning to `C[C@@H](CC(F)(F)F)Nc1ncc2c(O[C@H]3C[C@@H](N4CCOCC4)C3)ncc([C@H]3CC[C@H](O)CC3)c2n1` [Compound 408], the negative logarithm of the IC50 (pIC50) in experiment [1] and in experiment [2] was 6.00 to 7.00 each time.
Take `C[C@@H](CC(F)(F)F)Nc1ncc2c(O[C@H]3C[C@@H](O)C3)ncc(-c3ccc(C4(C#N)CC4)cc3)c2n1` [Compound 409]: the results for the pIC50 in experiment [1] and in experiment [2] were 5.00 to 6.00 and 6.00 to 7.00, respectively.
On to `O=C(O)[C@H]1CC[C@H](Nc2ncc3c(OC4CCOCC4)ncc([C@H]4CC[C@H](O)CC4)c3n2)CC1` [Compound 410], for which the negative logarithm of the IC50 (pIC50) in experiment [1] and in experiment [2] was 5.00 to 6.00 each time.
With `C[C@H](Nc1ncc2c(O[C@H]3C[C@@H](O)C3)ncc([C@H]3CC[C@H](O)CC3)c2n1)C(F)F` [Compound 411], the negative logarithm of the IC50 (pIC50) in experiment [1] was 6.00 to 7.00; in experiment [2] it was 5.00 to 6.00.
Consider `C[C@@H](CC(F)(F)F)Nc1ncc2c(O[C@@H]3C[C@H]4CC[C@@H](C3)N4C[C@H]3CCCO3)ncc([C@H]3CC[C@H](O)CC3)c2n1` [Compound 412], for which the negative logarithm of the IC50 (pIC50) in experiment [1] and in experiment [2] was no less than 7.00 throughout.
Regarding `C[C@@H](CC(F)(F)F)Nc1ncc2c(O[C@@H]3C[C@H]4CC[C@@H](C3)N4[C@H]3CCOC3)ncc([C@H]3CC[C@H](O)CC3)c2n1` [Compound 413], the pIC50 in experiment [1] and in experiment [2] was no less than 7.00 in each case.
Consider `C[C@@H](CC(F)(F)F)Nc1ncc2c(O[C@@H]3C[C@H]4CC[C@@H](C3)N4C[C@H]3CCOC3)ncc([C@H]3CC[C@H](O)CC3)c2n1` [Compound 414], for which the pIC50 in experiment [1] and in experiment [2] was no less than 7.00 in each case.
In the case of `C[C@@H](CC(F)(F)F)Nc1ncc2c(O[C@@H]3C[C@H]4CC[C@@H](C3)N4[C@@H]3CCOC3)ncc([C@H]3CC[C@H](O)CC3)c2n1` [Compound 415], the negative-log IC50 (pIC50) in experiment [1] was no less than 7.00; in experiment [2] it was 6.00 to 7.00.
As for `C[C@@H](CC(F)(F)F)Nc1ncc2c(O[C@@H]3C[C@H]4CC[C@@H](C3)N4C[C@@H]3CCOC3)ncc([C@H]3CC[C@H](O)CC3)c2n1` [Compound 416], the pIC50 in experiment [1] and in experiment [2] was no less than 7.00 each time.
Consider `CO[C@H]1C[C@@H]1Nc1ncc2c(O[C@H]3C[C@@H](O)C3)ncc([C@H]3CC[C@H](O)CC3)c2n1` [Compound 417], for which the pIC50 was no less than 7.00 in experiment [1] and 6.00 to 7.00 in experiment [2].

The term pIC50 denotes the IC50 on a negative log10 scale, so that one unit is a factor of ten. Low readings indicate a large IC50, high ones a small IC50.
